Holding throughout (test): NCI anticancer screen, dose series, 48 h
Assay [1] has as its system ACHN renal.
For assay [2], the system named is CCRF-CEM leukemia.
Assay [3] relates to K-562 leukemia.
Assay [4] relates to OVCAR-3 ovarian.
Assay [5] deals with RXF 393 renal.
Assay [6] concerns U251 CNS.
In assay [7] the test system is UACC-257 melanoma.
In assay [8] the test system is HOP-62 NSCLC.
Assay [9] relates to T-47D breast.

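Cells were grown in 96-well plates and exposed to each compound for 48 hours at five concentrations; endpoints were interpolated linearly between bracketing concentrations, or set to the highest concentration if not reached. The concentration for 50% growth inhibition is given as GI50. At the TGI there is no net growth.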 Where only a bound is given, the exact number is not on record here.

For `O=C(O)CCNS(=O)(=O)c1ccc(NC(=O)c2ccccc2)cc1`, the TGI in assay [1], in assay [2], in assay [3], in assay [4], in assay [5] and in [6] was above 100 µM throughout. The TGI in assay [7] was above 100 µM.

With `CCc1cccc(C)c1NS(=O)(=O)c1ccccc1`, the TGI in [1], in [2], in [8], in assay [3], in assay [4] and in assay [5] was above 100 µM each time. In addition, the TGI in assay [6] and in assay [7] was above 100 µM in each case.

Regarding `C[N+](C)(C)CCC(=O)CC[N+](C)(C)C`, the TGI in [1] was 31.3 µM; in assay [2], 7.42 µM; in assay [8], above 100 µM; in assay [3], 24.3 µM; in assay [4], 33.9 µM; in [5], 36 µM. Moreover, the TGI in assay [6] was above 100 µM; in [7] it was 35.9 µM.

For the compound `Cc1nc(C(N)=O)c(N)n1CCN1CCN(C(=O)CCCCCCCCCCNC2N=CNc3nc[nH]c32)CC1` (centres undefined), the TGI in assay [1] was above 100 µM; in [2], 81.9 µM; in [8] it was above 100 µM; in [3] it was above 100 µM; in assay [4] it was above 100 µM; in assay [6], above 100 µM. In assay [7], the TGI was determined as 45.7 µM.

With `O=C(NCCCOC(=O)CCCCCCCCC(=O)OCCCNC(=O)NC(=O)c1c[nH]c(=O)[nH]c1=O)NC(=O)c1c[nH]c(=O)[nH]c1=O`, the TGI in assay [1], in [2], in assay [8], in assay [3], in [4] and in assay [6] was above 100 µM throughout. In [7], this compound gave a TGI above 100 µM.

Take `CCOC(=O)Cc1nc2ccc3c(c2[nH]c1=O)C(=O)c1ccccc1C3=O`: the TGI in assay [1] is above 100 µM; in assay [2] it was above 100 µM; in assay [8] it was above 100 µM; in assay [3], above 100 µM; in assay [4] it was above 100 µM; in assay [5], 63.1 µM. Also, the TGI in assay [6] and in [7] was above 100 µM in each case.

Take `O=c1cc(-c2cccs2)[nH]c2cc3c(cc12)OCO3`: the TGI is above 100 µM in assay [1]; above 100 µM in assay [2]; 39.4 µM in [8]; above 100 µM in assay [3]; above 28.5 µM in [4]; 8.38 µM in assay [5]. Besides, the TGI was above 60.2 µM in assay [6] and above 100 µM in assay [7].

For the compound `CC1=C(C(=O)Nc2ccccc2C)C(c2ccc(Cl)cc2)C(C(=O)Nc2ccccc2C)=C(C)N1`, the TGI in [1], in [2], in assay [8], in assay [3], in assay [4] and in assay [5] was above 100 µM throughout. Further, the TGI in [6] and in [7] was above 100 µM in each case.

As to `CCSCCCSCCSCC`, the TGI in assay [2], in [8], in assay [3], in assay [4], in assay [9] and in [6] was above 100 µM each time. Further, in assay [7], the TGI is above 100 µM.

`O=C1CC(CC(=O)C2CCCCC2=O)C(=O)N1` (centres undefined): the TGI in [1], in assay [2], in [8], in [3], in assay [4] and in assay [5] was above 100 µM each time. The TGI in [6] and in assay [7] was above 100 µM throughout.

Regarding `O=C1C[C@H]2CCCN2[C@@H](c2ccccc2)C1`, the TGI in assay [1], in assay [2], in [8], in assay [3], in [4] and in assay [5] was above 100 µM each time. Further, the TGI in assay [6] and in [7] was above 100 µM throughout.

On to `CCOC(=O)Oc1c(OC)cc(C(=O)c2ccc(OC)c(O)c2OC)cc1OC`, for which the GI50 in [1] is 1.95 µM; in [2], 0.41 µM; in assay [8], 0.962 µM; in [3] it was 0.416 µM; in assay [4], 0.414 µM; in [6] it was 0.947 µM. In addition, the GI50 in assay [7] was above 100 µM. In addition, the TGI in [1], in assay [2], in [8], in assay [3], in assay [4] and in assay [6] was above 100 µM each time. In addition, in assay [7], the TGI is above 100 µM.

Take `COC1=NCc2ccccc2-c2ccccc21`: the TGI in assay [1], in assay [2], in assay [3], in [4], in assay [5] and in assay [6] was above 100 µM each time. For the same compound, the TGI in assay [7] is above 100 µM.

Consider `COc1cc(Cl)cc(=O)c(O)c1OC`, for which the TGI in assay [1] is above 100 µM; in assay [2] it was above 100 µM; in [8], above 100 µM; in assay [3], above 100 µM; in assay [4], above 87.2 µM; in [5] it was above 100 µM. Besides, the TGI in [6] and in assay [7] was above 100 µM each time.

For `O=C1C=CC(=O)c2c1ccc1c3ccccc3n(Cc3ccc([N+](=O)[O-])cc3)c21`, the TGI was above 100 µM in assay [1]; 40.8 µM in [2]; above 100 µM in assay [8]; 48.8 µM in assay [3]; above 100 µM in assay [4]; above 100 µM in assay [5]. Moreover, the TGI in assay [9], in assay [6] and in [7] was above 100 µM throughout.

On to `COC(=O)c1sc(C(=O)OC)c2c1CS(=O)C2`, for which the TGI in assay [2], in assay [3], in assay [4], in assay [5], in assay [6] and in [7] was above 100 µM throughout.

`Cc1cc2c(C)nn(Cc3ccccc3)c2c(C(=O)O)c1C`: the TGI in assay [1], in assay [2], in [8], in [4], in assay [5] and in assay [6] was above 100 µM each time. In addition, the TGI in assay [7] is above 100 µM.

As for `CCOC(=O)NC(=O)c1cn(CCN2CCN(C(=O)NCCCCCCNC(=O)N3CCN(CCn4cc(C(=O)NC(=O)OCC)c(=O)[nH]c4=O)CC3)CC2)c(=O)[nH]c1=O`, the TGI in assay [1], in [8], in assay [3], in assay [4], in [5] and in assay [6] was above 100 µM in each case. In assay [7], this compound had a TGI above 100 µM.

With `C/C=C/C(C#N)O[Si](C)(C)C` (centres undefined), the TGI in assay [1], in [8], in assay [4], in [5], in [6] and in assay [7] was above 100 µM each time.

With `C=C(c1ccccc1)C1(O)CCCCC1N` (centres undefined), the TGI in assay [1] is above 100 µM; in assay [2], 95.3 µM; in assay [8], above 100 µM; in assay [3], above 100 µM; in assay [4] it was above 100 µM; in assay [5], above 100 µM. Also, the TGI in assay [6] and in [7] was above 100 µM throughout.

On to `O=C1Nc2ccccc2C1(O)C/C(=N/O)c1ccc2ccccc2c1` (centres undefined), for which the TGI in [1], in assay [2], in assay [8], in assay [3], in assay [4] and in assay [5] was above 100 µM throughout. Further, the TGI in assay [6] and in [7] was above 100 µM each time.

Regarding `Cn1c(=O)c(N=Nc2c(=O)n(C)c(=O)n3c2[nH]c2ccccc23)c2[nH]c3ccccc3n2c1=O`, the TGI in assay [1], in [2], in [8], in [3], in [4] and in assay [5] was above 100 µM in each case. Besides, the TGI in assay [6] and in assay [7] was above 100 µM in each case.

In the case of `COc1ccc2nccc(C3=CCC4CCN(C(=O)c5ccccc5)C3C4)c2c1` (centres undefined), the TGI in assay [2], in assay [8], in [3], in assay [4], in [5] and in assay [6] was above 100 µM in each case. In assay [7], this compound yielded a TGI above 100 µM.

Take `O=C1C2C3C=C4c5ccccc5N(c5ccccc5)C4(C2C(=O)N1c1ccccc1)C1C(=O)N(c2ccccc2)C(=O)C31` (centres undefined): the TGI in assay [1], in assay [2], in assay [8], in assay [3], in assay [6] and in assay [7] was above 100 µM throughout.

For `Cn1c(=O)nc2n(-c3ccc(O)cc3)c3ccccc3nc-2c1=O`, the TGI in assay [1] is above 100 µM; in assay [2], above 100 µM; in [8], above 100 µM; in assay [3], above 100 µM; in assay [4], 64.2 µM; in assay [6], above 100 µM. The TGI in [7] is above 100 µM.

With `Cc1c(/C=N/NC(=O)c2ccccc2O)c(=O)n(-c2ccccc2)n1C`, the TGI in [1], in assay [2], in assay [8], in assay [3], in [4] and in assay [5] was above 100 µM each time. Moreover, the TGI in assay [6] and in assay [7] was above 100 µM in each case.

For `N#CC(N)=Nc1ccccc1`, the TGI in [1], in assay [2], in [8], in assay [3], in [4] and in assay [6] was above 100 µM throughout.

As for `CC(=O)OCc1c2ccccc2c(C)c2c1cc(F)c1ccccc12`, the TGI in assay [1] is 46.9 µM; in assay [2], 40.5 µM; in [8] it was above 100 µM; in [3], 78.9 µM; in assay [4], 57.5 µM; in [5], 57.9 µM. The figures for the TGI in assay [6] and in assay [7] were 58.8 µM and above 100 µM, respectively.

Turning to `O=C(COc1ccccc1Cl)N1N=C(c2ccc(Cl)cc2)CC1(O)c1ccccc1` (centres undefined), the TGI in assay [1], in assay [8], in assay [3], in assay [4], in assay [6] and in [7] was above 100 µM each time.

For the compound `CC1=C([Se]CC(OC(=O)CC[Se]c2ccccc2)C(=O)NC(C)(C)C)C(=O)c2ccccc2C1=O` (centres undefined), the GI50 in assay [1] is 1.86 µM; in assay [2], 0.628 µM; in assay [8], 0.357 µM; in assay [3], 0.729 µM; in assay [4] it was 1.61 µM; in [9], 1.68 µM. The GI50 was 1.14 µM in assay [6] and 1.57 µM in [7]. For the same compound, the TGI amounted to 3.69 µM in [1]; 4.1 µM in [2]; 1.7 µM in [8]; 3.08 µM in assay [3]; 3.11 µM in assay [4]; 3.88 µM in [9]. The TGI in assay [6] came out at 3.77 µM; in [7], 2.95 µM.

As for `O=C(/C=C/c1ccccc1)Oc1cccc2cccnc12`, the TGI is above 100 µM in assay [1]; above 29.3 µM in assay [2]; above 100 µM in [8]; above 100 µM in assay [3]; 24.6 µM in assay [4]; above 85.4 µM in assay [5]. In addition, the TGI in assay [6] was 30.8 µM; in assay [7], 18.2 µM.

In the case of `Nc1ncnc2c1ncn2C1OC(CSCC(F)(F)F)C(O)C1O` (centres undefined), the TGI in assay [1], in assay [8], in [3], in assay [4], in assay [5] and in [6] was above 100 µM in each case. In [7], the TGI is above 100 µM.

As for `Cn1ccnc1CCc1c(Cl)cccc1Cl`, the TGI in assay [1], in assay [2], in assay [8], in [3], in assay [4] and in assay [5] was above 100 µM in each case. For the same compound, the TGI in assay [6] and in assay [7] was above 100 µM in each case.

Values taken from PubChem BioAssay (NCI).
